Consider one compound from patent US8557804B2, “Nicotinic receptor agonists for the treatment of inflammatory diseases” (priority 2002, dated 2013).

The structures appear in SMILES notation.

Assay [1] relates to lung resistance in hyperresponsive dogs. Kind of assay: Dog model of lung hyper-responsiveness to metacholine. The note with it: 12 hyperresponsive dogs. It is filed as in vivo. On the procedure: (§1) In this model 12 dogs naturally sensitized to the roundworm Ascaris suum were used in a cross-over study design. Four groups of 3 dogs were randomly formed, exposed to the allergen, and each animal was left either untreated or received alternatively, ASM-002 (4 mg/kg 2× day in the food), or prednisone (1 mg/kg 1× day in the food), the most commonly used corticosteroid drug used to treat inflammation in asthma.
Hyper-responsiveness is described as the capacity of the lung to react (to increase lung resistance) to a non-specific external stimuli like metacholine or to allergens A hyper-responsive allergen-sensitized dog (asthmatic) will react to lower concentrations of metacholine compared to a non allergic dog. Similarly, improvement in lung hyper-responsiveness is shown by an increase in metacholine concentrations necessary to induce the same level of lung resistance.
Increasing concentrations of metacholine were administered with or without treatment with ASM-002 or Prednisone™ and lung resistance recorded.

In assay [2] the test system is TNF release by human blood monocytes. Kind of assay: cells. It counts as cell-based. On the procedure: Human monocytes were isolated from the blood of asthmatic patients by Ficoll-paque density gradient, let to adhere to tissue culture plates and stimulated with LPS (100 ng/ml) for 18 hours at 37° C. with or without increasing concentrations of nicotine. The release of TNF, a potent pro-inflammatory mediator, was measured in the cell culture supernatant by the ELISA method. Results are expressed as a percentage release from LPS-stimulated untreated cells (FIG. 28).
Tumor necrosis factor (TNF) is a mediator released in inflammatory states.
Human blood monocytes were isolated by Ficoll-paque density gradient, let to adhere to tissue culture plates and stimulated with LPS (100 ng/ml) for 18 hours at 37° C. with or without increasing concentrations of nicotine analogues.

The test system of assay [3] is lung resistance after metacholine challenge. The assay can be described thus: Airway hyper-reactivity / lung resistance to metacholine in asthmatic mice (FlexiVENT). It counts as in vivo. The following applies: ASM-002 4 mg/kg intra-nasal 3 days and 10 minutes prior to challenge; Salbutamol 10 minutes before. On the procedure:
Airway hyper-reactivity (AHR) in response to metacholine was measured in anesthetized, tracheotomized, ventilated mice using a computer-controlled ventilator (FlexiVENT™).
Increasing doses of metacholine (0 mg/kg-32.5 mg/kg) were administered through the jugular vein.
Lung response to a broncho-constrictive agent, metacholine, was measured by a Flexi-vent® apparatus. Ovalbumin-sensitized animals were treated intra-nasally with ASM-002 (4 mg/kg) during 3 days and 10 minutes prior to the metacholine challenge and compared to untreated OVA-sensitized animals. A negative control group of un-sensitized animals and a positive control group that received Salbutamol (Ventolin) 10 minutes before the metacholine challenge were also included.

A further assay concerns human bronchial rings. Kind of assay: Isometric study on human bronchial rings pre-contracted with metacholine. The following applies: cumulative doses. On the procedure: (§2) As described previously, tracheal or bronchial rings were mounted isometrically to force transducers in organ baths containing Krebs bicarbonate solution at 37° C. and bubbled with 95% O2-5% CO2, pre-contracted with submaximal concentration of metacholine cumulative doses of ASM-002 added. Changes of tension are recorded. Results are expressed as a percentage of maximal contraction for mouse (FIG. 34, p=0.002), dog (FIG. 35, p=0.004) and human (FIG. 36)

In assay [4] the test system is mouse tracheal airway smooth muscle. The assay can be described thus: Isometric study on isolated mouse tracheas pre-contracted with metacholine. The following applies: cumulative doses, p=0.002. On the procedure: Tracheal rings were mounted isometrically to force transducers in organ baths containing Krebs bicarbonate solution at 37° C. and bubbled with 95% O2-5% CO2, pre-contracted with submaximal concentration of metacholine (10^−5) and cumulative doses of the analogs were added to the baths. Changes of tension are recorded. Results are expressed as a percentage of maximal contraction (FIG. 29).
as §2

The subject of assay [5] is lung inflammation in dogs sensitized to Ascaris suum. Kind of assay: Dog asthma model (Ascaris suum), cellular inflammation in bronchoalveolar lavages. The note with it: ASM-002 8 mg/kg (4 mg/kg 2× day in the food); prednisone 1 mg/kg 1× day; n=12. It is filed as in vivo. The procedure: as §1
Cellular inflammation was evaluated in the bronchoalveolar lavages.

The test system of assay [6] is LTC4 release by blood eosinophils. The assay can be described thus: LTC4 production by PAF-stimulated blood eosinophils (enzyme immunoassay). It counts as cell-based, human. On the procedure:
Blood eosinophils, the most increased inflammatory cells in asthma, were isolated by negative selection using bead-conjugated anti-CD16 monoclonal antibody and magnetic activating cell sorting. Cells were pre-Incubated for 18 hours with the various DMPP analogs and then stimulated with 1 µM platelet-activating factor (PAF) to produce LTC4 which was measured by enzyme immunoassay.
Human blood eosinophils were isolated from blood of asthmatic patients, stimulated in vitro with platelet activating factor (PAF) to produce large amounts of LTC4, and treated or not with 80 μM ASM-002.

For assay [7], the system named is allergic inflammation of the lungs in ovalbumin-sensitized mice. Kind of assay: Ovalbumin-sensitized mouse asthma model, BAL cell counts. It is filed as in vivo, Balb/c mice. The note with it: Mus musculus, 72 h; intra-nasal 0.5 to 4 mg/kg/d for 3 days, n=8; read-out: ED50, cellular inflammation in the lungs (BAL cells). On the procedure: Groups of Balb/c mice were sensitized by intra-peritoneal injection of 20 μg OVA protein (chicken egg albumin; Sigma-Aldrich) emulsified in 2 mg aluminum hydroxide in PBS. After 4 weeks, challenge doses of 1.5%/50 μl OVA were administered intranasally. The challenge was performed daily for 3 consecutive days and then the mice assessed for allergic inflammation of the lungs 24 h after the last aerosol exposure. Groups of mice were treated with various concentrations of DMPP during the challenge period. Broncho-alveolar lavage (BAL) was performed and the fluid centrifuged at 400 g to separate cells from liquid.
Ovalbumin-sensitized mice (n=8) were challenged with the allergen and simultaneously treated intra-nasally with increasing concentrations of ASM-002 (0.5 to 4 mg/kg/d) for 3 days. The number of cells recovered by broncho-alveolar lavage was used as a measure of lung inflammation.

The subject of the next assay is dog bronchial rings. The assay can be described thus: Isometric study on dog bronchial rings pre-contracted with metacholine. The following applies: cumulative doses, p=0.004. The procedure:
as §2

The term EC50 denotes the concentration giving half of the maximal effect. In general, ED50 refers to the midpoint of the dose-response relation. For the compound `C[N+]1(C)CCCN(c2ccccc2)CC1` [ASM-002, 1,1-dimethyl-4-phenylhomopiperazinium iodide], in assay [1], the “dogs with decreased lung resistance / improved hyper-responsiveness” value was 7 out of 12. The TNF release entry in assay [2] (40 μM, mean of 5 subjects) was “inhibits TNF release”. Besides, the concentration for a half-maximal effect (EC50) in [2] (Monocyte, LPS-stimulated human blood monocytes, n=6, read-out: EC50, inhibition of TNF release) amounted to 3000 nM. In addition, the “lung resistance induced by metacholine compared to untreated OVA-sensitized mice” value in assay [3] was “significant reduction (return to baseline levels)”. The “relaxing effect on pre-contracted human bronchi” value in the assay on human bronchial rings is listed as “relaxing effect”. Besides, the “relaxing effect on pre-contracted mice tracheas” value in [4] is given as “relaxing effect”. In addition, in assay [5], the “cellular inflammation in the lungs of asthmatic dogs” value is on record as “inhibits significantly”. For the same compound, the LTC4 production entry in assay [6] (80 μM, PAF, eosinophils of asthmatic patients, 6 patients, p=0.0007) is given as “significant inhibition”. In addition, the LTC4 in assay [6] (eosinophils pre-incubated 18 hours with analog, PAF stimulated, untreated 1725.80) worked out at 246.40 pg/mL. Also, the ED50 in assay [7] turned out to be 0.71 mg/kg. In addition, the “relaxing effect on pre-contracted dog bronchi” value in the assay on dog bronchial rings is given as “relaxing effect”.
